According to ChEMBL document CHEMBL1123017, “Synthesis and antifertility activity of zoapatanol analogues” (1985):

The compounds below were run on Cavia porcellus (assay: Compound was evaluated for contragestational activity in guinea pig after intraperitoneal administration; Range is 10-25).
Assay type: functional

SMILES | Contragestational activity
CC(C)=CCC(O)C(C)CCC[C@]1(C)OC/C(=C/CO)CC[C@H]1O (stereo partly specified) | 10 mg/kg
C#CC(O)(CC=C(C)C)C(C)CCC[C@]1(C)OC[C@]2(CC(=O)O)CC[C@H]1O2 (stereo partly specified) | 10 mg/kg
CC(C)CCC(O)C(C)CCC[C@]1(C)OC[C@]2(CCO)CC[C@H]1O2 (stereo partly specified) | 10 mg/kg
CC(C)=CCC(O)C(C)CCC[C@]1(C)OC[C@]2(C(=O)O)CC[C@H]1O2 (stereo partly specified) | 10 mg/kg
CC(C)=CCC(C)(O)C(C)CCC[C@]1(C)OC/C(=C/CO)CC[C@H]1O (stereo partly specified) | 10 mg/kg
CC(=O)O[C@@H]1CC/C(=C\C=O)CO[C@@]1(C)CCCC(C)C(=O)CC=C(C)C (stereo partly specified) | 10 mg/kg

Each compound was assayed on Cavia porcellus (assay: Contragestational activity in guinea pig after intraperitoneal administration; Not Significant.).
Assay type: functional

SMILES | Contragestational activity
CC(CCC[C@]1(C)OC[C@]2(CC(=O)O)CC[C@H]1O2)C(=O)O (stereo partly specified) | >100 mg/kg
COC(=O)/C=C1\CC[C@@H](OC(C)=O)[C@](C)(CCCC(C)C(O)CC=C(C)C)OC1 (stereo partly specified) | >100 mg/kg
C/C(=C\C(C)(O)C(C)CCC[C@]1(C)OC/C(=C/CO)CC[C@H]1O)C(C)C (stereo partly specified) | >100 mg/kg
CC(=O)OC/C=C1\CCC(=O)[C@](C)(CCCC(C)C(=O)CC=C(C)C)OC1 (stereo partly specified) | >100 mg/kg
CC(C)CCC(=O)C(C)CCC[C@]1(C)OCC(CCO)CC[C@H]1O (stereo partly specified) | >100 mg/kg
C=C[C@@]12CC[C@@H](O1)[C@](C)(CCCC(C)C(=O)CC=C(C)C)OC2 (stereo partly specified) | >100 mg/kg
CC(CCC[C@]1(C)OC[C@]2(CC(=O)O)CC[C@H]1O2)C(=O)CC(C)C(C)C (stereo partly specified) | >100 mg/kg
CC(CCC[C@]1(C)OC[C@]2(CC(=O)O)CC[C@H]1O2)C(=O)/C=C/C(C)(C)O (stereo partly specified) | >100 mg/kg
CC(=O)O[C@@H]1CCC(=O)CO[C@@]1(C)CCCC(C)C(=O)O (stereo partly specified) | >100 mg/kg
C/C(=C\C(=O)C(C)CCC[C@]1(C)OC[C@]2(C(=O)O)CC[C@H]1O2)C(C)C (stereo partly specified) | >100 mg/kg
C/C(=C\C(=O)C(C)CCC[C@]1(C)OC/C(=C/CO)CC[C@H]1O)C(C)C (stereo partly specified) | >100 mg/kg
C#CC(O)(CC=C(C)C)C(C)CCC[C@]1(C)OC/C(=C/CO)CC[C@H]1O (stereo partly specified) | >100 mg/kg
C/C(=C\C(O)C(C)CCC[C@]1(C)OC/C(=C/CO)CC[C@H]1O)C(C)C (stereo partly specified) | >100 mg/kg
CC(CCC[C@]1(C)OC/C(=C/CO)CC[C@H]1O)C(=O)/C=C/C(C)(C)O (stereo partly specified) | >100 mg/kg
COC(=O)C[C@@]12CC[C@@H](O1)[C@](C)(CCCC(C)CO)OC2 (stereo partly specified) | >100 mg/kg
CC(CCC[C@]1(C)OC/C(=C/CO)CC[C@H]1O)C(=O)/C=C/C(C)(C)OO (stereo partly specified) | >100 mg/kg

Each compound was assayed on Cavia porcellus (assay: Compound was evaluated for contragestational activity in guinea pig after intraperitoneal administration; Range is 25-50).
Assay type: functional

SMILES | Contragestational activity
CC(C)=CCC(=O)C(C)CCC[C@]1(C)OC[C@]2(C(=O)O)CC[C@H]1O2 (stereo partly specified) | 25 mg/kg
CC(=O)O[C@@H]1CC/C(=C\CO)CO[C@@]1(C)CCCC(C)C(=O)CC=C(C)C (stereo partly specified) | 25 mg/kg
CC(C)CCC(=O)C(C)CCC[C@]1(C)OC[C@]2(CC(=O)O)CC[C@H]1O2 (stereo partly specified) | 25 mg/kg
CC(=O)OC/C=C1\CC[C@@H](OC(C)=O)[C@](C)(CCCC(C)C(CC=C(C)C)OC(C)=O)OC1 (stereo partly specified) | 50 mg/kg

These compounds were tested on Cavia porcellus (assay: Compound was evaluated for contragestational activity in guinea pig after intraperitoneal administration; Range is 50-100).
Assay type: functional

SMILES | Contragestational activity
CC(=O)OC/C=C1\CC[C@@H](OC(C)=O)[C@](C)(CCCC(C)C(=O)CC=C(C)C)OC1 (stereo partly specified) | 50 mg/kg
CC(C)=CCC(=O)C(C)CCC[C@]1(C)OC/C(=C/CO)CC[C@H]1O (stereo partly specified) | 50 mg/kg
CC(=O)OC/C=C1\CC[C@@H](OC(C)=O)[C@](C)(CCCC(C)C(O)CC=C(C)C)OC1 (stereo partly specified) | 50 mg/kg
CC(C)=CCC(O)C(C)CCC[C@]1(C)OC[C@]2(CCO)CC[C@H]1O2 (stereo partly specified) | 50 mg/kg
C/C(=C\C(=O)C(C)CCC[C@]1(C)OC[C@]2(CC(=O)O)CC[C@H]1O2)C(C)C (stereo partly specified) | 50 mg/kg
CC(=O)OC/C=C1\CC[C@@H](O)[C@](C)(CCCC(C)C(=O)CC=C(C)C)OC1 (stereo partly specified) | 50 mg/kg

What follows are compounds tested on Cavia porcellus (assay: Compound was evaluated for contragestational activity in guinea pig after intraperitoneal administration).
Assay type: functional

SMILES | Contragestational activity
CC(C)=CCC(O)C(C)CCC[C@]1(C)OC[C@]2(CC=O)CC[C@H]1O2 (stereo partly specified) | <10 mg/kg
CC(C)=CCC(=O)C(C)CCC[C@]1(C)OC[C@]2(CC=O)CC[C@H]1O2 (stereo partly specified) | <10 mg/kg
CC(C)CCC(O)C(C)CCC[C@]1(C)OC[C@]2(CC=O)CC[C@H]1O2 (stereo partly specified) | <10 mg/kg
CC(C)=CCC(=O)C(C)CCC[C@]1(C)OC[C@]2(CC(=O)O)CC[C@H]1O2 (stereo partly specified) | <10 mg/kg
CC(C)=CCC(O)C(C)CCC[C@]1(C)OC[C@]2(CC(=O)O)CC[C@H]1O2 (stereo partly specified) | <10 mg/kg
CC(C)=CCC(=O)C(C)CCC[C@]1(C)OC[C@]2(CCO)CC[C@H]1O2 (stereo partly specified) | <10 mg/kg
CC(C)=CCC(C)(O)C(C)CCC[C@]1(C)OC[C@]2(CC(=O)O)CC[C@H]1O2 (stereo partly specified) | <10 mg/kg
CC(C)CCC(O)C(C)CCC[C@]1(C)OC[C@]2(CC(=O)O)CC[C@H]1O2 (stereo partly specified) | <10 mg/kg
COC(=O)C[C@@]12CC[C@@H](O1)[C@](C)(CCCC(C)C(O)CC=C(C)C)OC2 (stereo partly specified) | <10 mg/kg
